US20230149537A1, “VACCINES, ADJUVANTS, AND METHODS OF GENERATING AN IMMUNE RESPONSE” (priority 2020, published 2023)

Key:
SARS-CoV-2 Spike [1] = test system: SARS-CoV-2 Spike; design: species or system C57BL/6 mice; conditions: mouse, in vivo, ip
T cell = test system: T cell; design: species or system C57BL/6 mice; conditions: mouse, in vivo, ip
SARS-CoV-2 Spike [2] = test system: SARS-CoV-2 Spike; design: species or system  mice; conditions: mouse, in vivo

CCCCCCCCCCCC(=O)CC(=O)N[C@H](COCCCCCCCCCC)COP(=O)([O-])OCCNC(=O)NCCOP(=O)([O-])OC[C@@H](COCC[C@@H](CCCCCCC)OC(=O)CCCCCCCCCCC)NC(=O)CC(=O)CCCCCCCCCCC.[Na+].[Na+] [Group E6020]
IgG profile (IgG2/IgG1) (SARS-CoV-2 Spike [1]): significant higher IgG2 than with Alum alone | Th1-type T cell responses (T cell): significantly enhanced Th1-type T cell responses | IgG1 and IgG2 Ab binding titers (SARS-CoV-2 Spike [2]): increase in IgG2 production
